Data reported in US20240366594A1, “Small Molecule Inhibitors of Formation of Neutrophil-Derived Extracellular Traps (NETosis) and Uses Thereof” (The Brigham and Women's Hospital, Inc., priority 2021, published 2024).

What was measured:
human neutrophils = test: Citrullinated histone H3 (CitH3) NET induction in PMA-stimulated human neutrophils; format: cell-based; conditions: for NETosis (anti-CitH3 signal), comparison of class I/IIb and class IIb selective inhibitors: drugs 10, 2, 0.4, 0.08 μM 1 hour, then 1 μM PMA 3 hours, FIG. 5F
Protocol: FIGS. 1A-H. Class I/II HDACs drive NET formation • (A and B) Freshly purified human (A) or mouse (B) neutrophils were treated with the indicated HDAC inhibitors at different doses (10, 2, 0.4, 0.08 μM), or with GSK484 (10 μM), for 1 h and then stimulated with 1 μM PMA for 3 h. Cells were fixed and stained with anti-citrullinated histone H3 (CitH3) antibody. NETosis induction was measured as the level of anti-CitH3 fluorescent signal. PMA alone represents 100% of NET induction. “-”: Cells treated with the highest dose of the indicated drug but not activated with PMA. • (C and D) Human neutrophils were treated, or not, with ricolinostat or GSK484 and then stimulated with 1 μM PMA. NETosis induction was measured as area of nuclei stained with DAPI. (C) 3D reconstruction of nuclei in each treatment (grid size 7.8 μm). (D) Quantification of DAPI signal from multiple fields of view (D) (n=9 for unstimulated, not pretreated with any drug [NT] and ricolinostat, n=7 for GSK484). • (E and F) Human neutrophils were treated as in (C-D), and immunoblot analysis of the indicated proteins was performed. Relative quantification of band intensity was analyzed with ImageJ software (F). White violins plots depict the quantification of histone H3 acetylation; red violin plots depict the quantification of histone H3 citrullination. Immunoblot in E is representative of four independent experiments. Gasdermin D NT, gasdermin D N terminal; pMLKL, phospho-MLKL. • (G) Human (left) or murine (right) neutrophils were treated, or not, with ricolinostat (10 μM) and then stimulated with 1 μM PMA for 3 h. ROS production was measured by luminescence with luminol-HRP. Histograms represent the total amount of ROS produced overtime. • (H) Murine neutrophils were treated, or not, with ricolinostat (10 μM) and then stimulated with fluorescent E. coli at the indicated multiplicity of infection (MOI) for 1 h. The histogram represents the percentage of neutrophils positive for E. coli staining. Graphs show mean±SEM. Statistics were calculated using one-way ANOVA (A, B, D) and two-way ANOVA (F, G, H) (*p<0.05; **p<0.01; ****p<0.0001. n.s., not significant). Statistics refers to the comparison with neutrophils stimulated with PMA alone (A, B). Gray stars represent comparison of all experimental groups with the unstimulated control, and black stars represent comparison between drug-treated groups and cells treated with PMA only (NT) (D). See also FIGS. 5A-J.
FIGS. 5A-J. Class I/II HDACs drive NET formation. • A) Quantification of extracellular DNA released by neutrophils treated, or not, with 1 μM GSK484 for 1 h and then stimulated with 1 μM PMA for 4 hours. Unstimulated, neutrophils not treated with drugs were used as a control. • B) Freshly purified human neutrophils were treated with the indicated HDAC inhibitors at different doses (0.08, 0.4, 2 and 10 μM) for 1 hour. Extracellular DNA release was assessed in the supernatant 3 hours after PMA stimulation. The dotted line represents the amount of DNA released from neutrophils treated with PMA alone. “-”: cells treated with the highest dose of the indicated drug but not activated with PMA. • C) Freshly purified human neutrophils were stimulated for 1 h, 3 h or 5 h. Cells were fixed and stained with an anti-CitH3 antibody. NETosis induction was measured as level of anti-CitH3 fluorescent signal. 5h-PMA treatment represents 100% NET induction. • D) Representative images of freshly isolated human neutrophils treated or not with 10 μM of the indicated drugs and stimulated with 1 μM PMA for 3 hours. Cells were fixed and then stained for CitH3 (red) and nuclei (blue). Scale bar=100 μm. • E) Murine neutrophils were treated with ricolinostat or GSK484 and then stimulated with […] for 3 hours. NET induction was measured as in (C). […]

mouse neutrophils = test: Citrullinated histone H3 (CitH3) NET induction in PMA-stimulated mouse neutrophils; format: cell-based
Protocol: FIGS. 1A-H. Class I/II HDACs drive NET formation • (A and B) Freshly purified human (A) or mouse (B) neutrophils were treated with the indicated HDAC inhibitors at different doses (10, 2, 0.4, 0.08 μM), or with GSK484 (10 μM), for 1 h and then stimulated with 1 μM PMA for 3 h. Cells were fixed and stained with anti-citrullinated histone H3 (CitH3) antibody. NETosis induction was measured as the level of anti-CitH3 fluorescent signal. PMA alone represents 100% of NET induction. “-”: Cells treated with the highest dose of the indicated drug but not activated with PMA. • (C and D) Human neutrophils were treated, or not, with ricolinostat or GSK484 and then stimulated with 1 μM PMA. NETosis induction was measured as area of nuclei stained with DAPI. (C) 3D reconstruction of nuclei in each treatment (grid size 7.8 μm). (D) Quantification of DAPI signal from multiple fields of view (D) (n=9 for unstimulated, not pretreated with any drug [NT] and ricolinostat, n=7 for GSK484). • (E and F) Human neutrophils were treated as in (C-D), and immunoblot analysis of the indicated proteins was performed. Relative quantification of band intensity was analyzed with ImageJ software (F). White violins plots depict the quantification of histone H3 acetylation; red violin plots depict the quantification of histone H3 citrullination. Immunoblot in E is representative of four independent experiments. Gasdermin D NT, gasdermin D N terminal; pMLKL, phospho-MLKL. • (G) Human (left) or murine (right) neutrophils were treated, or not, with ricolinostat (10 μM) and then stimulated with 1 μM PMA for 3 h. ROS production was measured by luminescence with luminol-HRP. Histograms represent the total amount of ROS produced overtime. • (H) Murine neutrophils were treated, or not, with ricolinostat (10 μM) and then stimulated with fluorescent E. coli at the indicated multiplicity of infection (MOI) for 1 h. The histogram represents the percentage of neutrophils positive for E. coli staining. Graphs show mean±SEM. Statistics were calculated using one-way ANOVA (A, B, D) and two-way ANOVA (F, G, H) (*p<0.05; **p<0.01; ****p<0.0001. n.s., not significant). Statistics refers to the comparison with neutrophils stimulated with PMA alone (A, B). […]
FIGS. 5A-J. Class I/II HDACs drive NET formation. • A) Quantification of extracellular DNA released by neutrophils treated, or not, with 1 μM GSK484 for 1 h and then stimulated with 1 μM PMA for 4 hours. […] Extracellular DNA release was assessed in the supernatant 3 hours after PMA stimulation. […] NETosis induction was measured as level of anti-CitH3 fluorescent signal. […] NET induction was measured as in (C). […]

Compound: O=C(CCCCCCNC(=O)c1cnc(N(c2ccccc2)c2ccccc2Cl)nc1)NO [citarinostat]
- NET formation (level of CitH3), two independent donors (human neutrophils; 10, 2, 0.4, 0.08 μM for 1 h, then 1 μM PMA, FIGS. 5H, 5I): inhibited NET formation to a comparable extent
- NET formation (level of CitH3) (mouse neutrophils; murine neutrophils, PMA, FIG. 5J): inhibited NET formation to a comparable extent

Compound: Nc1ccccc1NC(=O)c1ccc(CNC(=O)OCc2cccnc2)cc1 [entinostat]
- NET induction, measured as CitH3 staining (human neutrophils; drugs 10, 2, 0.4, 0.08 μM or GSK484 10 μM for 1 h, then 1 μM PMA 3 h, FIGS. 1A and 5D): prevented NET release in a dose-dependent manner with an efficacy comparable with GSK484
- release of CitH3 (NET induction) (mouse neutrophils; drugs 10, 2, 0.4, 0.08 μM for 1 h, then 1 μM PMA 3 h, FIG. 1B): no effect

Compound: CCCCN(Cc1ccc(C(=O)NO)cc1)C(=O)Nc1ccccc1 [nexturastat]
- NETosis (anti-CitH3 signal), comparison of class I/IIb and class IIb selective inhibitors (human neutrophils): selective class IIb targeting did not

Compound: O=C(CCCCCCC(=O)Nc1ccc([C@H]2O[C@@H](CSc3nc(-c4ccccc4)c(-c4ccccc4)o3)C[C@@H](c3ccc(CO)cc3)O2)cc1)NO [tubacin]
- NETosis (anti-CitH3 signal), comparison of class I/IIb and class IIb selective inhibitors (human neutrophils): class I/IIb HDAC inhibition prevented NETosis

Compound: CN1CCc2c(c3ccccc3n2Cc2ccc(C(=O)NO)cc2)C1 [tubastatin A]
- NETosis (anti-CitH3 signal), comparison of class I/IIb and class IIb selective inhibitors (human neutrophils): selective class IIb targeting did not
